Experimental data from US20120029187A1, “HALOALKYLSULFONANILIDE DERIVATIVE” (Nissan Chemical Industries, Ltd., priority 2009, published 2012).

Key:
Type in all cases: in vivo
barnyardgrass [1] = experiment: Test Example 2: herbicidal effects during the vegetation period under submerged conditions; conditions: treatment during the vegetation period under submerged conditions; dose 2.52 g/a
Procedure, shortened: (§1)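 Barnyardgrass, bulrush and ducksalad were co-sown in alluvial soil flooded to 4 cm and grown in a greenhouse at 25 to 30° C. At the 1- or 2-leaf stage, water-diluted emulsifiable concentrates went onto the water surface at set doses (g/a). Herbicidal effect was scored three weeks later on a graded scale.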

bulrush [2] = experiment: as above; conditions: treatment during the vegetation period under submerged conditions; dose 2.52 g/a
Procedure, shortened: as §1

ducksalad [3] = experiment: as above; conditions: treatment during the vegetation period under submerged conditions; dose 2.52 g/a
Procedure, shortened: as §1

barnyardgrass [4] = experiment: Test Example 1: herbicidal effects in preemergence treatment under submerged conditions; conditions: dose 2.52 g/a
Procedure, shortened: (§2)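 Weed seeds and 2.5-leaf rice seedlings shared each flooded cup of alluvial soil. Dosing, expressed as g per are, was by pouring water-diluted emulsifiable concentrate onto the surface on sowing day. Mortality was graded 0 to 5 after three weeks' growth.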

bulrush [5] = experiment: as above; conditions: dose 2.52 g/a
Procedure, shortened: as §2

ducksalad [6] = experiment: as above; conditions: dose 2.52 g/a
Procedure, shortened: as §2

water foxtail [7] = experiment: Test Example 3: herbicidal effects in soil treatment; conditions: dose 3.2 g/a
Procedure, shortened: (§3)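 Seeds were sown in sterilized diluvial soil and covered with about 1.5 cm of soil. Compounds, formulated as emulsifiable concentrates and diluted with water, were sprayed evenly over the soil surface at set doses in g/a. Herbicidal effect was scored on a rating scale three weeks later.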

velvetleaf [8] = experiment: as above; conditions: dose 3.2 g/a
Procedure, shortened: as §3

barnyardgrass [9] = experiment: as above; conditions: dose 3.2 g/a
Procedure, shortened: as §3

redroot pigweed = experiment: as above; conditions: dose 3.2 g/a
Procedure, shortened: as §3

giant foxtail [10] = experiment: as above; conditions: dose 3.2 g/a
Procedure, shortened: as §3

large crabgrass [11] = experiment: as above; conditions: dose 3.2 g/a
Procedure, shortened: as §3

wild oat [12] = experiment: as above; conditions: dose 3.2 g/a
Procedure, shortened: as §3

common lambsquater [13] = experiment: as above; conditions: dose 3.2 g/a
Procedure, shortened: as §3

common ragweed [14] = experiment: as above; conditions: dose 3.2 g/a
Procedure, shortened: as §3

Italian ryegrass [15] = experiment: as above; conditions: dose 3.2 g/a
Procedure, shortened: as §3

transplanted rice = experiment: Test Example 1: preemergence treatment under submerged conditions, effect on crop; conditions: dose 2.52 g/a
Procedure, shortened: as §2

beadstraw = experiment: Test Example 4: herbicidal effect in foliage treatment; conditions: dose 3.2 g/a, three weeks after the application
Procedure, shortened: (§4)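 Post-emergence foliar spray of water-diluted emulsifiable concentrate at predetermined doses (g per are), applied to plants 14 days after sowing in sterile diluvial soil (greenhouse, 25 to 30° C). Visual scale rating of effect taken 3 weeks later.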

water foxtail [16] = experiment: as above; conditions: dose 3.2 g/a, three weeks after the application
Procedure, shortened: as §4

velvetleaf [17] = experiment: as above; conditions: dose 3.2 g/a, three weeks after the application
Procedure, shortened: as §4

barnyardgrass [18] = experiment: as above; conditions: dose 3.2 g/a, three weeks after the application
Procedure, shortened: as §4

giant foxtail [19] = experiment: as above; conditions: dose 3.2 g/a, three weeks after the application
Procedure, shortened: as §4

large crabgrass [20] = experiment: as above; conditions: dose 3.2 g/a, three weeks after the application
Procedure, shortened: as §4

wild oat [21] = experiment: as above; conditions: dose 3.2 g/a, three weeks after the application
Procedure, shortened: as §4

common lambsquater [22] = experiment: as above; conditions: dose 3.2 g/a, three weeks after the application
Procedure, shortened: as §4

posumbu knotweed = experiment: as above; conditions: dose 3.2 g/a, three weeks after the application
Procedure, shortened: as §4

common ragweed [23] = experiment: as above; conditions: dose 3.2 g/a, three weeks after the application
Procedure, shortened: as §4

Italian ryegrass [24] = experiment: as above; conditions: dose 3.2 g/a, three weeks after the application
Procedure, shortened: as §4

O=C1CCCON1Cc1ccccc1NS(=O)(=O)C(F)(F)F [III-12]
A: barnyardgrass, herbicidal effect (evaluation scale 0-5) (barnyardgrass [1]): 5 (mortality of 90% or above (nearly complete death))
B: bulrush, herbicidal effect (evaluation scale 0-5) (bulrush [2]): 5 (mortality of 90% or above (nearly complete death))
C: ducksalad, herbicidal effect (evaluation scale 0-5) (ducksalad [3]): 5 (mortality of 90% or above (nearly complete death))
A: barnyardgrass, herbicidal effect (evaluation scale 0-5) (barnyardgrass [4]): 5 (mortality of 90% or above (nearly complete death))
B: bulrush, herbicidal effect (evaluation scale 0-5) (bulrush [5]): 5 (mortality of 90% or above (nearly complete death))
C: ducksalad, herbicidal effect (evaluation scale 0-5) (ducksalad [6]): 5 (mortality of 90% or above (nearly complete death))
herbicidal effect, G: water foxtail (water foxtail [7]): 5 (mortality of 90% or above (nearly complete death))
herbicidal effect, I: velvetleaf (velvetleaf [8]): 5 (mortality of 90% or above (nearly complete death))
herbicidal effect, A: barnyardgrass (barnyardgrass [9]): 5 (mortality of 90% or above (nearly complete death))
herbicidal effect, K: redroot pigweed (redroot pigweed): 0 (mortality of less than 5% (almost ineffective))
herbicidal effect, E: giant foxtail (giant foxtail [10]): 5 (mortality of 90% or above (nearly complete death))
herbicidal effect, D: large crabgrass (large crabgrass [11]): 5 (mortality of 90% or above (nearly complete death))
herbicidal effect, F: wild oat (wild oat [12]): 2 (mortality of at least 20% and less than 40%)
herbicidal effect, L: common lambsquater (common lambsquater [13]): 0 (mortality of less than 5% (almost ineffective))
herbicidal effect, J: common ragweed (common ragweed [14]): 5 (mortality of 90% or above (nearly complete death))
herbicidal effect, H: Italian ryegrass (Italian ryegrass [15]): 3 (mortality of at least 40% and less than 70%)
a: transplanted rice, effect on crop (evaluation scale 0-5) (transplanted rice): 2 (mortality of at least 20% and less than 40%)
O: beadstraw, herbicidal effect (beadstraw): 4 (mortality of at least 70% and less than 90%)
G: water foxtail, herbicidal effect (water foxtail [16]): 5 (mortality of 90% or above (nearly complete death))
I: velvetleaf, herbicidal effect (velvetleaf [17]): 5 (mortality of 90% or above (nearly complete death))
A: barnyardgrass, herbicidal effect (barnyardgrass [18]): 5 (mortality of 90% or above (nearly complete death))
E: giant foxtail, herbicidal effect (giant foxtail [19]): 3 (mortality of at least 40% and less than 70%)
D: large crabgrass, herbicidal effect (large crabgrass [20]): 5 (mortality of 90% or above (nearly complete death))
F: wild oat, herbicidal effect (wild oat [21]): 0 (mortality of less than 5% (almost ineffective))
L: common lambsquater, herbicidal effect (common lambsquater [22]): 0 (mortality of less than 5% (almost ineffective))
M: posumbu knotweed, herbicidal effect (posumbu knotweed): 0 (mortality of less than 5% (almost ineffective))
J: common ragweed, herbicidal effect (common ragweed [23]): 4 (mortality of at least 70% and less than 90%)
H: Italian ryegrass, herbicidal effect (Italian ryegrass [24]): 3 (mortality of at least 40% and less than 70%)
